{"source": "patent US8012969B2", "about": "“11C-labeled benzyl-lactam compounds and their use as imaging agents” (GE Healthcare Limited, priority 2005, dated 2011)", "key": {"5HT1B receptor [1]": {"molecular_target": "T1, 5HT1B receptor (Cavia porcellus, UniProt O08892)", "T1 construct": "in-vitro autoradiographies and ex-vivo experiments in Guinea pig; from tissue; host or cells: guinea pig brain (external globus pallidus, ventral pallidum)", "T1 sequence (O08892 whole entry)": "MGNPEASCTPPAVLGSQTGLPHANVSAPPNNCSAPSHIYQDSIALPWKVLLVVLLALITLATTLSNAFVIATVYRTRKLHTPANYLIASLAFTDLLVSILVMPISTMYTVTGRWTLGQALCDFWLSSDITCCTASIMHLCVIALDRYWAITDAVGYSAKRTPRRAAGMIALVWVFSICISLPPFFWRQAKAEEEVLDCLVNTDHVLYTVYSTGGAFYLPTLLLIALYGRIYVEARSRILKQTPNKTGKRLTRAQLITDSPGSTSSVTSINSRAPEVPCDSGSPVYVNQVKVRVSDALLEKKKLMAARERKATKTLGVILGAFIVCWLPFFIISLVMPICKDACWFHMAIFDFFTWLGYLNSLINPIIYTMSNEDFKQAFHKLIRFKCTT", "assay": "in-vitro autoradiographies with compound I-B", "type": "binding", "details": "in-vitro autoradiography, Guinea pig"}, "5HT1B receptor [2]": {"molecular_target": "T2, 5HT1B receptor (Macaca mulatta, UniProt F6SFA9)", "T2 construct": "in-vivo PET-experiments in Rhesus monkeys; from tissue; host or cells: brain of living rhesus monkeys (PET)", "T2 sequence (F6SFA9 1-390)": "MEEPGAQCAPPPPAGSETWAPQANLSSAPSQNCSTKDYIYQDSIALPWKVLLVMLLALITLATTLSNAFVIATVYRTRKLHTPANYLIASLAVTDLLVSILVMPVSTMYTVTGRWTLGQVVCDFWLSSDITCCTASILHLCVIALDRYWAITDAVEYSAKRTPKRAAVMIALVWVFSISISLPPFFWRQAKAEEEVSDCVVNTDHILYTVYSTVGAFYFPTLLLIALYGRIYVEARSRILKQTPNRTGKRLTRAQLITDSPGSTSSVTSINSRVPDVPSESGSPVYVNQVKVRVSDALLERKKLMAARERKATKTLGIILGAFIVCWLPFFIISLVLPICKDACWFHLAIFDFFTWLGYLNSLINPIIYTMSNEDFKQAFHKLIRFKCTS", "assay": "in-vivo PET-experiments with compound I-B", "details": "Rhesus monkeys"}, "5HT1B receptor [3]": {"molecular_target": "T1, 5HT1B receptor", "assay": "ex-vivo experiments with compound I-B", "type": "in vivo", "details": "Guinea pig"}}, "data": [{"smiles": "COC(C)(C)c1ccc(N2CC[C@@H](Cc3ccccc3N3CCN([11CH3])CC3)C2=O)cc1", "note": "[compound I-B, R-1-[4-(2-methoxy-isopropyl)-phenyl]-3-[2-(4-[^11C]methyl-piperazin-1-yl)benzyl]-pyrrolidin-2-one]", "values": [{"measurement": "sensitivity of uptake to blocking by other 5HT1B antagonists", "setting": "5HT1B receptor [1]", "result": "sensitive to blocking by other 5HT1B antagonists in a dose dependent manner"}, {"measurement": "specific uptake (regional distribution)", "setting": "5HT1B receptor [1]", "result": "specific uptake of compound I-B mainly in the external globus pallidus and ventral pallidum"}, {"measurement": "sensitivity of uptake to blocking by other 5HT1B antagonists", "setting": "5HT1B receptor [2]", "result": "sensitive to blocking by other 5HT1B antagonists in a dose dependent manner"}, {"measurement": "specific uptake (regional distribution)", "setting": "5HT1B receptor [2]", "result": "specific uptake of compound I-B mainly in the external globus pallidus and ventral pallidum"}, {"measurement": "sensitivity of uptake to blocking by other 5HT1B antagonists", "setting": "5HT1B receptor [3]", "result": "sensitive to blocking by other 5HT1B antagonists in a dose dependent manner"}, {"measurement": "specific uptake (regional distribution)", "setting": "5HT1B receptor [3]", "result": "specific uptake of compound I-B mainly in the external globus pallidus and ventral pallidum"}]}]}
